Assay type in all cases: cell-based
In assay [1] the test system is healthy human neonatal fibroblasts. The assay can be described thus: Real-time PCR of undifferentiated stem cell marker genes in neonatal fibroblast spheroids (6-well flat-bottom). Particulars: day 20 of 3D spheroid culture, coated 6-well flat-bottom; control without supplement = 1.0; ΔΔCt, β-actin. How it is done: 2 mL of an aqueous solution of the polypeptide represented by formula (1) (0.125%) (cell culture supplement) was added to a commercial polystyrene-made 6-well flat-bottom culture vessel (CellBIND, Corning) and allowed to stand at 4° C. for 24 hours.
Thereafter, the excess cell culture supplement was removed, and the remaining solution was dried in a dryer at 37° C. for 96 hours to complete coating treatment with the cell culture supplement. Healthy human neonatal fibroblasts (ATCC PCS-201-010, primary dermal fibroblasts, neonatal, referred to as “fibroblasts” below) were maintained and cultured in a serum-free medium (Promo Cell; fibroblast basal medium, basic-FGF 5 ng/mb and insulin 2.5 μg/mL). The fibroblasts floating in 2 mL of the medium were seeded in the culture vessel coated with the cell culture supplement at 2×10^6 cells/well and cultured at 37° C. under 5% CO2 conditions. For a control, fibroblasts were seeded in a culture vessel of the same type with no coating applied with the cell culture supplement (2×10^6 cells/well). Observation was performed with a microscope on day 2 and day 20 after the start of culture to capture images of spheroid formation (FIG. 5). […]
Specifically, a NucleoZOL reagent (Macherey-Nagel) was added to each type of cells, and total-RNA was extracted according to the protocol recommended by the reagent manufacturer and used as template RNA for detecting undifferentiated stem cell markers. For real-time PCR analysis, PCR probes from QuantiFast Probe RT-PCR Kits (QTAGEN; No. 204454) and TagMan Gene Expression Assay Probe (Thermo Fisher Scientific) were used. […] In the gene expression analysis, relative quantification was performed according to the ΔΔCt method (Delta Delta Ct method). The results of analysis according to the ΔΔCt method show the amount of a gene expressed by control cells under the conditions of “no cell culture supplement, flat-bottom 2D growth, day 0” as “1.0” in relative terms, and the increase rate of the expression level on day 20 of spheroid proliferation was determined by comparison (FIG. 6).
For orientation: In qPCR the cycle at which signal appears reflects the starting amount.

Assay [2] concerns healthy human adult skin fibroblasts. The assay can be described thus: Spheroid culture of healthy human adult skin fibroblasts, microscope observation. The note with it: 96-well round-bottom vessel coated with 0.125% solution; uncoated control grew 2D. The procedure:
An aqueous solution of the polypeptide represented by formula (1) (0.125%) (cell culture supplement) was added to a commercial polystyrene-made 96-well round-bottom culture vessel (Nuncion Delta 96U Bottom, Thermo Fisher Scientific) and allowed to stand at 4° C. for 24 hours. The cell culture supplement solution was then removed and the coated cell culture supplement was dried in a dryer at 37° C. for 96 hours to complete the cell culture supplement coating process. Healthy human adult skin fibroblasts (Lonza, normal human dermal fibroblast-adult, referred to as “adult skin fibroblasts” below) were maintained and cultured in a serum-free medium (Fujifilm Wako Pure Chemical Corporation; DMEM/F12 medium, human serum albumin recombinant 0.5 mg/mL, human transferrin recombinant 10 μg/mL, basic-FGF 5 ng/ml, and insulin 2.5 μg/mL). Adult skin fibroblasts floating in 100 μL of the medium were seeded in the 96-well round-bottom culture vessel coated with the cell culture supplement at 2×10^4 cells/well and cultured at 37° C. under 5% CO2 conditions.

The subject of assay [3] is healthy human adult mammary gland epithelial cells. Nature of the assay: Spheroid culture of healthy human adult mammary gland epithelial cells, microscope observation. The note with it: culture vessel coated with 0.125% solution; day 2 to day 20; uncoated control grew 2D. How it is done: An aqueous solution of the polypeptide represented by formula (1) (0.125%) (cell culture supplement) was added to a commercial polystyrene-made 6-well flat-bottom culture vessel (CellBIND, Corning) and to a polystyrene-made 96-well round-bottom culture vessel (Nunclon Delta 96U Bottom, Thermo Fisher Scientific) and allowed to stand at 4° C. for 24 hours.
The cell culture supplement solution was then removed and the coated cell culture supplement was dried in a dryer at 37° C. for 96 hours to complete the cell culture supplement coating process. Healthy human adult mammary gland epithelial cells (ATCC PCS-600-010, primary mammary epithelial cells, referred to as “mammary gland epithelial cells” below) were maintained and cultured in a serum-free medium (Promo Cell; mammary epithelial cell growth medium, EGF 5 ng/ml, and insulin 2.5 μg/mL). In the culture vessels coated with the cell culture supplement, the mammary gland epithelial cells floating in 2 mL of the medium were seeded at 2×10^6 cells/well (6-well flat-bottom culture vessel) and the mammary gland epithelial cells floating in 100 μL of the medium were seeded at 2×10^4 cells/well (96-well round-bottom culture vessel). The cells of each culture vessel were cultured at 37° C. under 5% CO2 conditions. […]

The values below come from patent publication US20240294881A1, “CELL CULTURE SUPPLEMENT FOR PRODUCING STEM CELLS, AND METHOD FOR PRODUCING STEM CELLS” (OPTICELL, INC, priority 2021, published 2024).

On to “(Pro-Hyp-Gly)n [cell culture supplement]”, for which, in assay [1], the “NANOG gene expression level (increase vs control)” value is 9.1 fold, the “OCT4 gene expression level (increase vs control)” value is on record as 5.1 fold and the “SOX2 gene expression level (increase vs control)” value was found to be 34.4 fold. The spheroid formation result in assay [2] is reported as “formed spheroids”. Further, the spheroid formation entry in assay [3] is “self-assembled to form spheroids”.
